Measurements published in patent US4282375A, “Halogenated-naphthalenetriyltris(sulfonylimino)-aryl multicarboxylic acids and salts thereof” (priority 1979, dated 1981).
Where two headings read alike, the source gives them in different places.

What was measured:
[1] = system: late components of human complement (C3-C9); assay: Test Code 035 (C3-C9 inhibitor), lysis of EAC 142; format: biochemical; conditions: serial twofold dilution assay; higher well number indicates higher activity
Excerpt: (§1) An active inhibitor protects C2 from C1 and C4; (ii) Test Code 035 (C3-C9 inhibitor)--This test determines the ability of the late components of human complement (C3-C9) to lyse EAC 142 in the presence of approriate dilutions of the test compound. An active inhibitor protects EAC 142 from lysis by human C3-C9; (iii) Test Code 036 (C-Shunt inhibitor)--In this test human erythrocytes rendered fragile are lysed in autologous serum via the shunt pathway activated by cobra venom factor in the presence of appropriate dilutions of the test compound. Inhibition of the shunt pathway results in failure of lysis; (iv) Forssman Vasculitis Test--Here, the well known complement dependent lesion, Forssman vasculitis, is produced in guinea pigs by intradermal injection of rabbit anti-Forssman antiserum. […] Percent inhibition is calculated by comparison with simultaneous controls. […]

[2] = system: shunt pathway; assay: Test Code 036 (C-Shunt inhibitor), lysis of fragile human erythrocytes in autologous serum, cobra venom factor activated; format: cell-based; conditions: serial twofold dilution assay; higher well number indicates higher activity
Excerpt: as §1

[3] = target: activated human C1 (Homo sapiens, UniProt P09871); assay: Test Code 026 (C1 inhibitor); format: biochemical; conditions: serial twofold dilution assay; higher well number indicates higher activity
Excerpt: as §1

[4] = system: complement activity of serum; assay: Guinea Pig Intraperitoneal Test (GPIP), serum complement activity; format: in vivo; conditions: Cavia porcellus, ip, 200 mg./kg. i.p.
Excerpt: An active inhibitor protects C2 from C1 and C4; (ii) Test Code 035 (C3-C9 inhibitor)--This test determines the ability of the late components of human complement (C3-C9) to lyse EAC 142 in the presence of approriate dilutions of the test compound. An active inhibitor protects EAC 142 from lysis by human C3-C9; (iii) Test Code 036 (C-Shunt inhibitor)--In this test human erythrocytes rendered fragile are lysed in autologous serum via the shunt pathway activated by cobra venom factor in the presence of appropriate dilutions of the test compound. Inhibition of the shunt pathway results in failure of lysis; (iv) Forssman Vasculitis Test--Here, the well known complement dependent lesion, Forssman vasculitis, is produced in guinea pigs by intradermal injection of rabbit anti-Forssman antiserum. The lesion is measured in terms of diameter, edema and hemorrhage and the extent to which a combined index of these is inhibited by prior intraperitoneal injection of the test compound at 200 mg./kg. is then reported, unless otherwise stated; (v) Forssman Shock Test--Lethal shock is produced in guinea pigs by an i.v. injection of anti-Forssman antiserum and the haromic mean death time of treated guinea pigs is compared with that of simultaneous controls; (vi) Complement Level Reduction Test--In this test, the above dosed guinea pigs, or others, are bled for serum and the complement level is determined in undiluted serum by the capillary tube method of U.S. Pat. No. 3,876,376 and compared to undosed control guinea pigs; (vii) Cap 50 Test--Here, appropriate amounts of the test compound are added to a pool of guinea pig serum in vitro, after which the undiluted serum capillary tube assay referred to above is run. The concentration of compound inhibiting 50% is reported; (viii) Guinea Pig Intraperitoneal Test (GPIP)--Guinea Pigs weighing about 300 g. are dosed intraperitoneally (i.p.) with 200 mg./kg. of the test compound dissolved in saline and adjusted to pH 7-8. […] Percent inhibition is calculated by comparison with simultaneous controls. […]

For `O=C([O-])c1cc(NS(=O)(=O)c2cc(S(=O)(=O)Nc3cc(C(=O)[O-])c(C(=O)[O-])c(C(=O)[O-])c3)c3c(Cl)ccc(S(=O)(=O)Nc4cc(C(=O)[O-])c(C(=O)[O-])c(C(=O)[O-])c4)c3c2)cc(C(=O)[O-])c1C(=O)[O-].[Na+].[Na+].[Na+].[Na+].[Na+].[Na+].[Na+].[Na+].[Na+]` [5,5',5"-[(8-chloro-1,3,5-naphthalenetriyl)tris(sulfonylimino)]-tri-1,2,3-benzenetricarboxylic acid, nonasodium salt], the “C-Late 035 Wells” value [1] was “+2 Wells”, the “Shunt Inhibition 036 Wells” value [2] was “+5 Wells” and the “Cl 026 Wells” value [3] was “+7 Wells”. It also gave an inhibition at 200 mg/kg ([4]; 0.5 h, blood sample 30 minutes after injection, read-out: In Vivo Activity (Guinea Pig) % Inhibition Intraperitoneal, 30 minutes) of -75%, an inhibition at 200 mg/kg ([4]; 1 h, blood sample 60 minutes after injection, read-out: In Vivo Activity (Guinea Pig) % Inhibition Intraperitoneal, 60 minutes) of -69% and an inhibition at 200 mg/kg ([4]; 2 h, blood sample 120 minutes after injection, read-out: In Vivo Activity (Guinea Pig) % Inhibition Intraperitoneal, 120 minutes) of 75%.
